Assay results as given in PMC9023544, “Ketone-selenoesters as potential anticancer and multidrug resistance modulation agents in 2D and 3D ovarian and breast cancer in vitro models” (Scientific Reports, 2022).

What was measured:
[1] = tested on: HOC (human parental ovarian adenocarcinoma, A2780); assay: Cytotoxic activity, 2D, resazurin, 72 h; type: cell-based; conditions: for IC50: Homo sapiens, A2780, 72 h, read-out: HOC IC50; for SI HEK293/HOC: IC50 HEK293 / IC50 HOC
Protocol: (§1) The cytotoxic potential of selenoesters was tested on several cancer cell lines—HOC (human parental ovarian adenocarcinoma, HOC, A2780, Sigma-Aldrich), HOC/ADR (sub-line resistant to Adriamycin, A2780/ADR, Sigma-Aldrich), MCF-7 (human breast adenocarcinoma, ATCC®, HTB-22TM), MCF-7/PAX (resistant sub-line established by gradual adaptation of parental cells to increased concentration of paclitaxel; kindly provided by Division of Cell and Molecular Biology, Third Faculty of Medicine, Charles University, Czech Republic) and on one non-cancerous cell line—HEK293 (human embryonic kidney cell line, Leibniz Institute, DSMZ-German Collection of Microorganisms and Cell Cultures GmbH). All mentioned cell lines were authenticated using short tandem repeat (STR) profiling. Cell lines were cultivated in DMEM medium (10% FBS, 1× antibiotic antimycotic solution), except for HEK293 cell line which was cultivated without antibiotics. In case of the resistant cell lines, the medium was supplemented with a required concentration of cytostatics to maintain resistance (HOC/ADR—100 nM Adriamycin; MCF-7/PAX—300 nM paclitaxel). All cells were cultivated in a CO2 incubator (5% CO2, 37 °C, Thermo Fisher Scientific).
(§2) For the experiment, the cells at passage number 5–20 were seeded at a 1 × 10^5 cells/mL concentration into 96-well plates to 100 µL final volume. The final concentration range of the compounds was 0.63–20 µM. After an incubation of 72 h, the plates were washed 1× with PBS and resazurin solution (0.03 mg/mL in 1× PBS) was added. After 1 h of incubation, the fluorescence signal was recorded (ex./em. 560/590 nm).
(§3) The selectivity index (SI) was determined as the ratio of IC50 value for the non-cancerous cells to IC50 for the cancer cell line. For resistant cell lines, the collateral sensitivity (CS) was calculated as the ratio of IC50 value in sensitive tumour cells to IC50 in the resistant cancer cell line. In both cases, the selectivity is considered as: (1) strongly selective when SI or CS value is above 6, (2) moderately selective when SI or CS is between 3 and 6, (3) slightly selective when SI or CS is between 1 and 3 and (4) non-selective when SI or CS is less than 1[23].

[2] = tested on: MCF-7 (human breast adenocarcinoma); assay: Cytotoxic activity, 2D, resazurin, 72 h; type: cell-based; conditions: for IC50: Homo sapiens, MCF7, 72 h, read-out: MCF-7 IC50; for SI HEK293/MCF-7: IC50 HEK293 / IC50 MCF-7
Protocol: as §1, §2, §3

HOC spheroids = assay: Cytotoxic activity against 3D models, CellTiter-Glo 3D; type: cell-based; conditions: Homo sapiens; 72 h old spheroids, 72 h incubation, n=4
Protocol: (§4) The ability of selenoesters to affect the formation of spheroids was described in the previous section. Subsequently, we have tested the cytotoxic potential of selenoesters in preformed 72 h old spheroids. Both sensitive and resistant mature breast and ovarian cells spheroids were incubated in the presence of selenoesters in a concentration range 1.6–100 µM. […] A safe concentration of selenoesters has been established based on the results of sensitization of drug-resistant 3D models.
(§5) Human ovarian and breast cancer cells (HOC, MCF-7, parental and resistant) were seeded in ultra-low attachment 96-well plates (Sigma-Aldrich) at a cell density of 0.5 × 10^5 cells/mL. After 3 days of spheroid formation, plates were carefully washed once with PBS and fresh DMEM medium (99 µL) was added. Using a binary compound dilution, the concentration range of the K3, K4, K7 compounds was prepared in new 96-well plates (0.16–10 mM). After 1 µL compound transfer, the final concentration range of compounds was 1.6–100 µM. The required volume of DMSO (1% V/V) was added to the positive control. After 72 h of incubation, 100 µL of CellTiter-Glo 3D Re-agent (Promega) was added to each well. Spheroid plates were incubated for 25 min at room temperature. Subsequently, the luminescent signal was recorded by detector (SpectraMax i3x Multi-Mode Microplate reader with MiniMax Imaging Cytometer, Molecular Devices).

MCF-7 spheroids = assay: as above; type: cell-based; conditions: Homo sapiens, MCF7; 72 h old spheroids, 72 h incubation, n=4
Protocol: as §4, §5

MCF-7/PAX spheroids = assay: as above; type: cell-based; conditions: Homo sapiens, MCF7; 72 h old spheroids, 72 h incubation, n=4
Protocol: as §4, §5

HOC/ADR spheroids = assay: as above; type: cell-based; conditions: Homo sapiens; 72 h old spheroids, 72 h incubation, n=4
Protocol: as §4, §5

[3] = target: T1, human recombinant P-gp membrane fraction (Homo sapiens, UniProt P08183); assay: P-gp-Glo assay, verapamil-stimulated P-gp ATPase activity; type: biochemical; conditions: for IC50: read-out: IC50, verapamil-stimulated P-glycoprotein ATPase activity; for mechanism of P-gp inhibition: with and without verapamil
T1 construct: purchased Promega
T1 sequence (P08183 whole entry): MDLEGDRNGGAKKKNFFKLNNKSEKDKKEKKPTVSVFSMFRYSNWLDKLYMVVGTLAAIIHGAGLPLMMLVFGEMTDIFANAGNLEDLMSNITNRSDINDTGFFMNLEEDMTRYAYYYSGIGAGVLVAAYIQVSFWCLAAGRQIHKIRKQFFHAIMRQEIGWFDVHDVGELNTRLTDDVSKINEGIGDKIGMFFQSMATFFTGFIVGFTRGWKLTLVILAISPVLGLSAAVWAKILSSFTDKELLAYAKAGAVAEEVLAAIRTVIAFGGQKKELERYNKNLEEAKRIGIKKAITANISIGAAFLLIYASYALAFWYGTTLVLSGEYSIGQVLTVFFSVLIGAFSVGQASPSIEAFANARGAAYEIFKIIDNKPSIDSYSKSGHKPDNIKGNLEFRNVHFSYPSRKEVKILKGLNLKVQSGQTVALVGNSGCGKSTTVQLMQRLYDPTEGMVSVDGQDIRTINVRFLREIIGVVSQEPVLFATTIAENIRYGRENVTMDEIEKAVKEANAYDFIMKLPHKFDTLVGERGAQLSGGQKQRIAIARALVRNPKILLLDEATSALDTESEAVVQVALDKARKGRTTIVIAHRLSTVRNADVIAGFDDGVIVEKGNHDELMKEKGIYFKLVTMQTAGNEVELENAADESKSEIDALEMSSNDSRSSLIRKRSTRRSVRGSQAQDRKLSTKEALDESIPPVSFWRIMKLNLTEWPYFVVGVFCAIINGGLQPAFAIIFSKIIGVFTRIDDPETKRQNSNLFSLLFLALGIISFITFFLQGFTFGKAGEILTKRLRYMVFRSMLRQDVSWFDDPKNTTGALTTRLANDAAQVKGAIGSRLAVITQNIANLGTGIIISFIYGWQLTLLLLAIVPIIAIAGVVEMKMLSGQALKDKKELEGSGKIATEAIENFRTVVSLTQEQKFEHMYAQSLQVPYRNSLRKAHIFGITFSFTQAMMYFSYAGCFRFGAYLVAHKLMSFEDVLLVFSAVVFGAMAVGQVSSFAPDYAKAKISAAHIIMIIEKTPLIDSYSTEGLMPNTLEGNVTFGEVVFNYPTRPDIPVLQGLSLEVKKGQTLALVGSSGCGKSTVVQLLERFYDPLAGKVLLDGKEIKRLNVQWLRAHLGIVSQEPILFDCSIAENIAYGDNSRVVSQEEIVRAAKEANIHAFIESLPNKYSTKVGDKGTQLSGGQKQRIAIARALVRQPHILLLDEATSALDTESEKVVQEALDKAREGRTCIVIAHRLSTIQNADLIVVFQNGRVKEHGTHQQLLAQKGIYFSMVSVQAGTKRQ
Protocol: P-gp Glo™ Assay System represents a bioluminescent assay for the detection of P-gp ATPase activity. […] The activity of P-gp is inversely proportional to the luciferase-generated luminescent signal of unmetabolized ATP. For the detection of P-gp inhibitory potential, the compounds (concentration range 12.5–100 µM) were tested for their capacity to inhibit verapamil-stimulated P-gp ATPase activity in a competitive mode.
Using ATP standard curve and linear regression, the average amount of ATP consumed in presence of each compound was calculated. Afterwards, the specific P-gp activity (consumed ATP) was plotted versus the concentrations of the test compound and IC50 values were determined (Table 6). By using one-way ANOVA analysis, the statistical differences between compounds were identified; the compounds with the most statistically significant inhibition capacity was K3, followed by K4 and K7.
The modulation of P-glycoprotein ATPase activity was performed according to the manufacturer’s guidelines[54] and previously published work[55]. […] The reduction of verapamil-stimulated ATPase activity by selenoesters can indicate them as P-gp ATPase inhibitors. The reaction was initiated with 10 µL of MgATP (5 mM) addition to the final 50 µL volume. After 1 h incubation at 37 °C, the ATPase reaction was stopped with 50 µL of ATP detection reagent and subsequently the plate was incubated for 20 min at room temperature. Thanks to the luciferase reaction, it was possible to detect the remaining non-metabolized ATP as the luminescent signal. By using ATP standards and linear regression, the relative luminescent values (RLU) were converted to ATP concentration per reaction; and the amount of consumed ATP by the compounds was calculated.

Row | SMILES | IC50 [1] [µM] | SI HEK293/HOC [1] | IC50 [2] [µM] | SI HEK293/MCF-7 [2] | IC50 (HOC spheroids) [µM] | IC50 (MCF-7 spheroids) [µM] | IC50 (MCF-7/PAX spheroids) [µM] | IC50 (HOC/ADR spheroids) [µM] | inhibition of verapamil-stimulated P-gp ATPase activity (luminescent signal) ([3]; K3 50 µM versus Na3VO4 100 µM) | IC50 [3] [µM] | mechanism of P-gp inhibition [3]
1 | CC(=O)C[Se]C(=O)c1ccc(Br)cc1 [K3] | 1.8 | 1.3 ± 0.0 | 2 ± 0.5 | 1.2 ± 0.3 | 1.7 ± 0.1 | 2.5 ± 0.2 | 4 ± 0.1 | 3.9 ± 0.2 | more effectively inhibited than sodium orthovanadate | 11.7 ± 1 | competitively inhibits efflux of another substrate
2 | CC(=O)C[Se]C(=O)c1ccccc1C(F)(F)F [K4] | 2.2 ± 0.1 | 2.5 ± 0.2 | 1.8 ± 0.1 | 2.9 ± 0.3 | 3.1 ± 0.1 | 2.1 | 4.8 ± 0.3 | 10.5 ± 0.5 | – | 23 ± 0.2 | –
3 | CC(=O)C[Se]C(=O)c1ccc(C(C)(C)C)cc1 [K7] | 1.1 ± 0.1 | 1.7 ± 0.2 | 1.9 ± 0.1 | 0.8 ± 0.1 | 2.8 ± 0.1 | 2.2 ± 0.3 | 7.5 ± 0.2 | 10.1 ± 0.5 | – | 25.7 ± 0.6 | non-competitive P-gp inhibitor
